This note sets out measurements from US20120028837A1, “RAPID SCREEN FOR REPRODUCTIVE TOXICANTS” (PRESIDENT AND FELLOWS OF HARVARD COLLEGE, priority 2010, published 2012).

One data set deals with xol-1::GFP worms. Nature of the data set: xol-1::GFP reporter assay for male (aneuploid) embryos. As to conditions: for male embryos in adult mid-ventral sections: 0.1 mg/ml in liquid culture, added 1 day post-L4 for 20 hours; for frequency of xol-1::GFP worms containing GFP+ eggs: 0.1 mg/ml, preliminary analysis. As to the method: In one embodiment of the invention, synchronized cultures of worms are grown for the desired developmental period (e.g., from eggs to adulthood, 4 days) on multiwell plates (e.g., 96-well plates) containing media mixed with the compound of interest at the concentration of interest (e.g., 1 μM and 100 μM). The concentrations can be adjusted if necessary to compensate for solubility differences. Following exposure, the worms are washed off the plate with a physiological buffer and then run through a high-throughput flow cytometry device (e.g., the COPAS Biosort). With this automated nematode analysis, sorting, and dispensing platform (Furlong et al., Nat Biotechnol. 2001; 19(2):153-6; Gill et al., Free Radic Biol Med. 2003; 35(6):558-65; Rea et al., Nat Genet. 2005; 37(8):894-8. PMCID: 1479894) one 96-well plate can be screened per hour. In one embodiment, test wells are alternated with mock wells to flush the equipment in order to avoid cross-contamination. […] The worm sorter not only directs the sorting of GFP positive worms from GFP negative ones but when coupled to the Profiler analysis software, also allows for the localization of the fluorescence within the worm. In one embodiment, scoring is for GFP positive eggs present in the animal's mid-ventral section (uterus), therefore, any worms showing mis-localized GFP expression will be discarded thus improving the accuracy of the screen. Positive controls used for the screen can include colchicine and nocodazole, both described as disruptors of spindle organization and therefore of chromosome segregation (Sato A, et al., Cell. 2009; 139(5):907-19; Stear et al., Mol Biol Cell. 2004; 15(11):5187-96. PMCID: 524797).
Worms are grown from eggs to adulthood (4 days) on 96-well plates containing media mixed with the compound of interest. Initially, two different concentrations are assayed, 1 μM and 100 μM, concentrations previously used in the context of other C. elegans toxicological screens (Boyd, McBride and Freedman, 2007; Boyd et al, 2009).
Following exposure, the worms are washed off the plate with buffer and run through a high-throughput flow cytometry device, commonly known as a “worm sorter” (COPAS-Biosort from Union Biometrica). The worm sorter not only directs the sorting of GFP positive worms from GFP negative ones but when coupled to the Profiler analysis software, also allows for the localization of the fluorescence within the worm. Scoring in the screen, is for GFP positive eggs present in the animal's mid-ventral section (uterus), therefore, any worms showing mis-localized GFP expression are discounted thus improving the accuracy of the screen.
The xol-1::GFP reporter strain was tested for meiotic disruption by addition of an external agent, by exposing the C. elegans to several cell cycle disruptors (microtubule disrupting agents) dissolved in DMSO, DMSO alone was used as a negative control. Each individual test agent was added to the liquid culture medium of the C. elegans at 1 day post-L4 (4 days of development) for a total of 20 hours. The C. elegans was then analyzed for the percentage of male embryos in the adult-midventral sections. Nocodazol was added to the medium at a final concentration of 0.1 mg/ml.
Adult xol-1::GFP worms were exposed to 100 μM nocodazole for 24 hours in liquid culture and the presence of GFP+ embryos in the uterus of exposed worms was monitored.
The effect of selected chemotherapeutic agents on the generation of aneuploidies was analyzed. xol-1::GFP adult worms were exposed to the compounds at a concentration of 100 μM for 24 hours in liquid culture in triplicates.
Each well contained 750 μl of M9, the drug at a final concentration of 100 μM, concentrated bacteria and young adults+eggs. The cultures were examined at 24 hours and 4 days.
On the technique in general: Reporter assays use an easily measured gene product as a stand-in for the process of interest.

For the next data set, the system named is xol-1::LUC. Nature of the data set: xol-1::luciferase reporter induction. The format is in vivo, C. elegans. As to conditions: 1 μM or 100 μM for 24 hours, preliminary experiment.
A further data set relates to C. elegans germline. As to the kind of experiment: Size of mitotic zone of the germline (DAPI, phospho-histone H3 staining). An excerpt:
In C. elegans, the germline is comprised of two main compartments, a mitotic region (the premeiotic tip), where nuclei are under the influence of the distal tip cell that maintains them in a proliferative state; and the meiotic region, where nuclei progress through the stages of Prophase I before being fertilized. The mitotic compartment of the worm gonad following BPA exposure was examined.
(§1) BPA bears endocrine disrupting activity in many developmental contexts including gonadal, brain and mammary gland development. BPA has affinity for multiple members of the estrogen receptors family, in particular BPA binds to the human estrogen receptor alpha (ERα) and ERβ as well as estrogen-related receptor gamma (ERR-γ) and in C. elegans with nuclear hormone receptor NHR-14 which also binds estrogen. […] Two hallmarks of exposure to BPA were examined, the decrease in the size of the proliferative zone and the condensation defects observed at diakinesis, as they are both highly penetrant and consistent phenotypes. […] Similarly to the experiments described above, the size of the mitotic zone was quantified as well as condensation defects at diakinesis.
Growing Conditions and Drug Exposures. Worms were cultured according to [23] at 20° C. on NGM plates without cholesterol. […] Exposure was carried from embryogenesis to adulthood by plating sodium hypochloride treated eggs onto drug and control plates and incubated at 20° C. for four days.
Antibody Staining. DAN staining, immunostaining and analysis of stained meiotic nuclei were performed as in [25] except for ATL-1 and AIR-2 antibodies were dissected gonads were subjected to a 1% fixation method as described in [27]. […] The secondary antibodies used were: Cy3 anti-rabbit, FITC anti-guinea-pig and FITC anti-mouse (Jackson Immunochemicals), each at 1:100, Stacks of 0.2 μm slices were captured using a Leica microscope, coupled to the DeltaVision fluorescence microscope system (Applied Precision). […]

Data set [1] has as its system C. elegans diakinesis oocytes. As to the kind of experiment: Diakinesis oocyte analysis (chromosome condensation, SYP-1, AIR-2, pH3). As to conditions: 1 mM E2; […] 4-HT.
Description: Proper processing of recombination events is coupled with the formation of mature bivalents during the diakinesis stage such that in mutants where recombination intermediate processing is impaired, bivalent maturation is delayed.
Associated with the changes in chromatin morphology, the SC is disassembled during late diakinesis in a tightly controlled fashion. Accordingly, SC components, such as SYP-1, are detectable on the short arms of the bivalent in the −3 oocyte but are essentially absent from the bivalents of −2 and −1 oocytes. Thus, whether a delay in chromosome remodeling could correlate with an incomplete disassembly of SC components in late diakinesis was examined.
Accurate chromosome segregation at meiosis I is characterized by the carefully orchestrated loss of cohesion between homologs coupled with retention of cohesion between sister chromatids. This regulated process involves the targeting of the Aurora-B kinase AIR-2, a member of the chromosomal passenger complex, to the short arm of the bivalents in the −1 oocyte which has been proposed to lead to the removal the meiosis-specific cohesin REC-8 from the short arms of the bivalent. To examine whether these key steps in late meiotic prophase I might be impaired in BPA treated gonads, the localization of AIR-2 in the −1 oocytes was examined. […] Phospho histone H3 (pH3) is a canonical substrate for the activity of AIR-2 [59] and accordingly, although it accumulates in the −3 to −1 oocytes, it is only detected on the short arms of the bivalent in the −1 oocyte in the presence of AIR-2 [56, 57].
as §1
Antibody Staining. DAN staining, immunostaining and analysis of stained meiotic nuclei were performed as in [25] except for ATL-1 and AIR-2 antibodies were dissected gonads were subjected to a 1% fixation method as described in [27]. Antibodies were used at the following dilutions: rabbit α-SYP-1 (1:100), mouse α-RAD-51 (1:100), rabbit α-HTP-3 (1:500), guinea pig α-HIM-8 (1:100), rabbit α-ATL-1 (1:50), rabbit α-AIR-2 (1:100) and rabbit α-pCHK-1 (1:100). The secondary antibodies used were: Cy3 anti-rabbit, FITC anti-guinea-pig and FITC anti-mouse (Jackson Immunochemicals), each at 1:100, Stacks of 0.2 μm slices were captured using a Leica microscope, coupled to the DeltaVision fluorescence microscope system (Applied Precision). The images were projections approximately halfway through 3D data stacks of whole nuclei, except for diakinesis images which encompass entire nuclei.

Setting [2] is: xol-1::GFP, C. elegans, in vivo, 24 hours, 100 μM.
The mark [3] stands for this setting: average over the chemicals of the category, 100 μM, 24 hours, liquid culture, triplicates.

Structures can show the parent of a compound that is named as a salt. Marks after values point to notes of the source that are not given here.

As for `CC[C@]1(O)C[C@@H]2CN(CCc3c([nH]c4ccccc34)[C@@](C(=O)OC)(c3cc4c(cc3OC)N(C)[C@H]3[C@@](O)(C(=O)OC)[C@H](OC(C)=O)[C@]5(CC)C=CCN6CC[C@]43[C@@H]65)C2)C1` [Vinblastine], the “Average % of worms with 1 or more GFP embryos/category” value in the data set with xol-1::GFP worms (setting [2]) amounted to 23.3% *.
For `CC[C@@]1(O)C(=O)OCc2c1cc1n(c2=O)Cc2cc3c(CN(C)C)c(O)ccc3nc2-1` [Topotecan HCl], the “Average % of worms with 1 or more GFP embryos/category” value with xol-1::GFP worms (setting [2]) is given as 3.77% *.
Turning to Triethylene melamine, in the data set on xol-1::GFP worms (setting [3]), the “Average % of worms with 1 or more GFP embryos/category” value was found to be 3.77% *.
For `COC(=O)Nc1nc2ccc(C(=O)c3cccs3)cc2[nH]1` [nocodazole], in the data set with xol-1::GFP worms, the “male embryos in adult mid-ventral sections” value came to 37% and the “frequency of xol-1::GFP worms containing GFP+ eggs” value is 6/16. In the data set on xol-1::GFP worms (adult worms, 100 μM, 24 hours, liquid culture), the “worms with at least one GFP+ embryo” value was found to be 55%. Besides, the “Average % of worms with 1 or more GFP embryos/category” value with xol-1::GFP worms (setting [3]) is recorded as 23.3% *. The “induction of luciferase compared to DMSO” value with xol-1::LUC is “significant induction”.
As to `C[C@]12CC[C@@H]3c4ccc(O)cc4CC[C@H]3[C@@H]1CC[C@@H]2O` [E2, estradiol], in the data set on C. elegans germline (1 mM E2 for 4 days, DAPI staining), the “increase in the number of nuclei comprising the mitotic region vs ethanol” value worked out at 13%. The “bivalent maturation / condensation defects at diakinesis” value in data set [1] is recorded as “did not cause any observable bivalent maturation defects”.
Regarding `CN[C@H]1CCc2cc(OC)c(OC)c(OC)c2-c2ccc(OC)c(=O)cc21` [demecolcine], in the data set on xol-1::GFP worms, the “male embryos in adult mid-ventral sections” value is 2.7% and the “frequency of xol-1::GFP worms containing GFP+ eggs” value is given as 3/66.
As to `CC[C@]1(O)C[C@H]2CN(CCc3c([nH]c4ccccc34)[C@@](C(=O)OC)(c3cc4c(cc3OC)N(C=O)[C@H]3[C@@](O)(C(=O)OC)[C@H](OC(C)=O)[C@]5(CC)C=CCN6CC[C@]43[C@@H]65)C2)C1` [Vincristine sulfate], the “Average % of worms with 1 or more GFP embryos/category” value in the data set with xol-1::GFP worms (setting [3]) was 23.3% *.
Consider `Oc1ncnc2[nH]ncc12` [Allopurinol], for which the “Average % of worms with 1 or more GFP embryos/category” value in the data set with xol-1::GFP worms (setting [2]) was 0.6%.
4-hydroxy-tamoxifen [4-HT]: in the data set with C. elegans germline (4 days exposure, BPA 1 mM, 4-HT […]), the “pH3 positive nuclei in mitotic zone vs control” value is “two-fold decrease”.
